Test [1] addresses T1, murine RIP1 (Mus musculus, UniProt Q60855).
T1 construct: U937 and L929 cells were obtained from the American Type Culture Collection; host or cells: L929
T1 sequence (Q60855 1-656): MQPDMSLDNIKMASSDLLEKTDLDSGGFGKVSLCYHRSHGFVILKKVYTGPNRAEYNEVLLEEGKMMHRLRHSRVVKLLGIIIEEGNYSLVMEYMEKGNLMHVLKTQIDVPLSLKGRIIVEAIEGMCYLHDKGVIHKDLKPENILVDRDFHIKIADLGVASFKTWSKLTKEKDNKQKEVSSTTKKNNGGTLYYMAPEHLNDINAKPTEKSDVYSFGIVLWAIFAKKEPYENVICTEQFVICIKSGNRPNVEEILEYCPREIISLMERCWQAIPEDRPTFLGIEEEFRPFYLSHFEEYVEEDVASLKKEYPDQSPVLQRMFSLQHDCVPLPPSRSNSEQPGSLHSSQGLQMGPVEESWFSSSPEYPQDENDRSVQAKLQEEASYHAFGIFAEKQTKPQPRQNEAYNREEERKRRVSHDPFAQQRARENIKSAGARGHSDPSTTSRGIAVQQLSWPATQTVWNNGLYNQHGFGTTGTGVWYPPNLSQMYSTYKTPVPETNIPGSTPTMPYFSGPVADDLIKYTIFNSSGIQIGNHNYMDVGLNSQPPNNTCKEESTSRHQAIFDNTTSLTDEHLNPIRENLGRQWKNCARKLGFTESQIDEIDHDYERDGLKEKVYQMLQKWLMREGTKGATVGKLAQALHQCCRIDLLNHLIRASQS
As to the kind of experiment: L929 cell necroptosis assay (TNFa + zVAD, CellTiter-Glo). The test is classed as cell-based. How it is done:
(§1) In this example, U937 and L929 cells were exposed to compounds of the present disclosure and a cell necroptosis assay was conducted to evaluate the compounds' activity against human RIP1 and murine RIP1.
(§2) U937 and L929 cells were obtained from the American Type Culture Collection (Manassa, Va., USA). Both cells were maintained in logarithmic growth phase in complete RPMI 1640 media (Sigma, ST Louis, Mo., USA) supplemented with 10% fetal bovine serum (Sigma, ST Louis, Mo., USA) at 37° C. with 5% CO2. For necroptosis assay, L929 cells were plated for 18 h in 100 µL/well medium at 10K cells/well in Costar 96-well black clear-bottom plates (Fisher Scientific, Hampton, N.H., USA); U937 cells were plated on the day of the assay in 50 µL/well medium containing 60 uM zVAD-fmk (Lonza, Basel, Switzerland) at 50K cells/well. Medium from L929 cells were removed from the 96-well plates and replaced with 50 µL/well new medium containing 40 uM zVAD-fmk. Each compound of the present disclosure evaluated in this example was serially diluted in DMSO from 2.5 mM in 4-fold dilutions, and then diluted 1:125 in complete medium. 50 µL/well 2× of the compound was then added to the cells in the plates. The cells were pre-incubated with the compound for 1 hour at 37° C. with 5% CO2 and before addition of 10 µL/well 11×TNFa (Peprotech, Rocky Hill, N.J., USA) to give a final concentration of 2 ng/mL for TNFa. The relative amount of necroptosis cells was determined by luminescent using a Wallac Victor2 Luminometer (PerkinElmer, Waltham, Mass., USA) and a CellTiter-Glo® Luminescent Cell Viability Reagent Assay (Promega, Madison, Wis., USA) added per manufacturer instructions after 18 hours of TNFa stimulation at 37° C. with 5% CO2.Results from this example are summarized in Table 2. This example establishes that embodiments of the compounds described herein have unexpectedly potent activity against human RIP1 and murine RIP1, which allows their assessment in in vivo mouse models of disease.
In general terms: In ATP-based viability assays light output follows the ATP content of the culture.

The target in test [2] is T2, RIPK1 (Homo sapiens, UniProt Q13546).
T2 sequence (Q13546 1-671): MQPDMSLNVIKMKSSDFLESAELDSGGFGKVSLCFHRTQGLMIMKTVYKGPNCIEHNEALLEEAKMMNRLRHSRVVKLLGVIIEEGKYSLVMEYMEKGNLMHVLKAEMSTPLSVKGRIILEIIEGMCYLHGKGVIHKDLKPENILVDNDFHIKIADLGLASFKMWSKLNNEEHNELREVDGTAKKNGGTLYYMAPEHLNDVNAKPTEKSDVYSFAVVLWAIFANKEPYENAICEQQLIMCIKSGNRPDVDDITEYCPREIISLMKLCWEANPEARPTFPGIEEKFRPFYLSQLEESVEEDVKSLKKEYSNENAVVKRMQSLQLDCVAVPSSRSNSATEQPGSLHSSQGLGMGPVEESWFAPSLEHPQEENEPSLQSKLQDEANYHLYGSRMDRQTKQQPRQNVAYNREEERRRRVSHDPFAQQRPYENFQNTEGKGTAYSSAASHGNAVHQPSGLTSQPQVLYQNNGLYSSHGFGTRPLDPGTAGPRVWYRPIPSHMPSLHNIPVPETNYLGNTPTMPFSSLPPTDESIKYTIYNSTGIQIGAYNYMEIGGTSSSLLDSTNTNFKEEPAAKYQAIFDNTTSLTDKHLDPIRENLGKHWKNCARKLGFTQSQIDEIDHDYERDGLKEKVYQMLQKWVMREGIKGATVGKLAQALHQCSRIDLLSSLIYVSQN
The test is described as follows: RIPK1 ADP-Glo biochemical kinase assay. The conditions noted are these: 30 min at 30° C. The method, then:
The final reaction volume was 5.0 μl.
Adding 5 μl of ADP-Glo™ terminated the reaction.

The target in test [3] is T3, human RIP1 (Homo sapiens, UniProt Q13546).
T3 construct: U937 and L929 cells were obtained from the American Type Culture Collection; host or cells: U937
T3 sequence (Q13546 1-671): T2 sequence (Q13546 1-671)
The test is described as follows: U937 cell necroptosis assay (TNFa + zVAD, CellTiter-Glo). It is filed as cell-based. The conditions noted are these: U937 Zvad TNF CTG Recovery, U937 cells, TNFa 2 ng/mL + zVAD-fmk, 18 hours. How it is done:
as §1, §2

pIC50: −log10 of the molar value.

What is called pIC50 is −log10 of the IC50, conventionally taken in molar units.

As for `CN1C(=O)C(NC(=O)c2ncn(Cc3c(Cl)cccc3Cl)n2)CCc2ccc(CN3CCN(c4ccncc4)CC3)cc21` (racemic) [Compound I-3, (±)-1-(2,6-Dichlorobenzyl)-N-(1-methyl-2-oxo-8-((4-(pyridin-4-yl)piperazin-1-yl)methyl)-2,3,4,5-tetrahydro-1H-benzo[b]azepin-3-yl)-1H-1,2,4-triazole-3-carboxamide], the pIC50 in test [1] was 5.60; in test [2], 7.51; in test [3] it was 8.24.

In the case of `CN1C(=O)C(NC(=O)c2n[nH]c(Cc3ccccc3)n2)CCc2ccc(CN3CCN(c4ccncc4)CC3)cc21` (racemic) [Compound I-4, (±)-5-Benzyl-N-(1-methyl-2-oxo-8-((4-(pyridin-4-yl)piperazin-1-yl)methyl)-2,3,4,5-tetrahydro-1H-benzo[b]azepin-3-yl)-1H-1,2,4-triazole-3-carboxamide], the pIC50 in test [2] is 6.28; in test [3], 7.27.

`O=C(NC1CCc2ccc(CN3CCN(c4ccncc4)CC3)cc2NC1=O)c1ncn(Cc2c(Cl)cccc2Cl)n1` (racemic) [Compound I-5, (±)-1-(2,6-Dichlorobenzyl)-N-(2-oxo-8-((4-(pyridin-4-yl)piperazin-1-yl)methyl)-2,3,4,5-tetrahydro-1H-benzo[b]azepin-3-yl)-1H-1,2,4-triazole-3-carboxamide]: the pIC50 is 7.18 in test [2] and 7.79 in test [3].

In the case of `O=C(NC1CCc2ccc(CN3CCN(c4ccncc4)CC3)cc2NC1=O)c1n[nH]c(Cc2ccccc2)n1` (racemic) [Compound I-6, (±)-5-Benzyl-N-(2-oxo-8-((4-(pyridin-4-yl)piperazin-1-yl)methyl)-2,3,4,5-tetrahydro-1H-benzo[b]azepin-3-yl)-1H-1,2,4-triazole-3-carboxamide], the figures for the negative logarithm of the IC50 (pIC50) in test [2] and in test [3] were 6.48 and 5.84, respectively.

Regarding `O=C(NC1CCc2ccc(CN3CCN(c4ccncc4)CC3)cc2NC1=O)c1n[nH]c(Cc2ccccc2)n1` (racemic) [Compound I-7, (±)-5-Benzyl-N-(2-oxo-8-((4-(pyridin-4-yl)piperazin-1-yl)methyl)-2,3,4,5-tetrahydro-1H-benzo[b]azepin-3-yl)-1H-1,2,4-triazole-3-carboxamide], the pIC50 in test [2] was 6.09; in test [3] it was 5.58.

As for `CN1C(=O)C(NC(=O)c2n[nH]c(Cc3ccccc3)n2)CCc2ccc(CN3CCn4ncnc4C3)cc21` (racemic) [Compound I-8, (±)-5-Benzyl-N-(8-((5,6-dihydro-[1,2,4]triazolo[1,5-a]pyrazin-7(8H)-yl)methyl)-1-methyl-2-oxo-2,3,4,5-tetrahydro-1H-benzo[b]azepin-3-yl)-1H-1,2,4-triazole-3-carboxamide], the pIC50 in test [1] is 5.26; in test [2], 6.42; in test [3], 8.03.

As for `O=C(NC1CCc2ccc(N3CC4(CCOCC4)C3)cc2NC1=O)c1n[nH]c(Cc2ccccc2)n1` (racemic) [Compound I-9, (±)-5-Benzyl-N-(2-oxo-8-(7-oxa-2-azaspiro[3.5]nonan-2-yl)-2,3,4,5-tetrahydro-1H-benzo[b]azepin-3-yl)-1H-1,2,4-triazole-3-carboxamide], the pIC50 in test [1] was 4.51; in test [2], 6.38; in test [3] it was 7.88.

For the compound `CN1C(=O)C(NC(=O)c2n[nH]c(Cc3ccccc3)n2)CCc2ccc(N3CCN4CCC3CC4)cc21` (racemic) [Compound I-11, (±)-N-(8-(1,4-Diazabicyclo[3.2.2]nonan-4-yl)-1-methyl-2-oxo-2,3,4,5-tetrahydro-1H-benzo[b]azepin-3-yl)-5-benzyl-1H-1,2,4-triazole-3-carboxamide], the pIC50 is 6.09 in test [2] and 5.97 in test [3].

For `CN1C(=O)C(NC(=O)c2n[nH]c(Cc3ccccc3)n2)CCc2ccc(N3CC4(CCCCC4)C3)cc21` (racemic) [Compound I-12, (±)-5-Benzyl-N-(1-methyl-2-oxo-8-(2-azaspiro[3.5]nonan-2-yl)-2,3,4,5-tetrahydro-1H-benzo[b]azepin-3-yl)-1H-1,2,4-triazole-3-carboxamide], the pIC50 in test [1] was 7.36; in test [2], 6.35; in test [3], 8.28.

Regarding `CN1C(=O)C(NC(=O)c2n[nH]c(Cc3ccccc3)n2)CCc2ccc(N3CCC4(CCOCC4)CC3)cc21` (racemic) [Compound I-13, (±)-5-Benzyl-N-(1-methyl-2-oxo-8-(3-oxa-9-azaspiro[5.5]undecan-9-yl)-2,3,4,5-tetrahydro-1H-benzo[b]azepin-3-yl)-1H-1,2,4-triazole-3-carboxamide], the results for the pIC50 in test [1], in test [2] and in test [3] were 7.02, 6.43 and 8.68, respectively.

In the case of `[2H]C([2H])([2H])N1C(=O)C(NC(=O)c2n[nH]c(Cc3ccccc3)n2)CCc2ccc(C#CC(C)(C)O)cc21` (racemic) [Compound I-14, (±)-5-Benzyl-N-(8-(3-hydroxy-3-methylbut-1-yn-1-yl)-1-(methyl-d)-2-oxo-2,3,4,5-tetrahydro-1H-benzo[b]azepin-3-yl)-1H-1,2,4-triazole-3-carboxamide], the negative-log IC50 (pIC50) is 7.36 in test [1], 6.89 in test [2] and 8.14 in test [3].

`O=C(NC1CCc2ccc(CN3CCN(c4ccncc4)CC3)cc2NC1=O)c1cc(Oc2ccccc2)ccn1` (racemic) [Compound I-26, (±)-N-(2-Oxo-8-((4-(pyridin-4-yl)piperazin-1-yl)methyl)-2,3,4,5-tetrahydro-1H-benzo[b]azepin-3-yl)-4-phenoxypicolinamide]: the values for the pIC50 in test [2] and in test [3] were 6.18 and 5.41, respectively.

On to `CN1C(=O)C(NC(=O)c2nccc(-c3ccccc3)n2)CCc2ccc(CN3CCN(c4ccncc4)CC3)cc21` (racemic) [Compound I-38, (±)-N-(1-Methyl-2-oxo-8-((4-(pyridin-4-yl)piperazin-1-yl)methyl)-2,3,4,5-tetrahydro-1H-benzo[b]azepin-3-yl)-4-phenylpyrimidine-2-carboxamide], for which the pIC50 in test [2] was 5.35; in test [3], 5.20.

As for `CN1C(=O)C(NC(=O)c2nccc(-c3ccccc3)n2)CCc2ccc(CN3CCn4ncnc4C3)cc21` (racemic) [Compound I-39, (±)-N-(8-((5,6-dihydro-[1,2,4]triazolo[1,5-a]pyrazin-7(8H)-yl)methyl)-1-methyl-2-oxo-2,3,4,5-tetrahydro-1H-benzo[b]azepin-3-yl)-4-phenylpyrimidine-2-carboxamide], the pIC50 in test [3] was 6.66.

These data come from patent US20210070735A1, “RIP1 INHIBITORY COMPOUNDS AND METHODS FOR MAKING AND USING THE SAME” (Rigel Pharmaceuticals, Inc., priority 2019, published 2021).
